According to ChEMBL document CHEMBL1250481, “Isoxazole analogs of curcuminoids with highly potent multidrug-resistant antimycobacterial activity” (2010):

Legend:
Assay type in all cases: functional
[1] = tested on: Mycobacterium tuberculosis; experiment: Antimycobacterial activity against isoniazid and rifampin -resistant Mycobacterium tuberculosis M27 after 24 hrs by microtiter alamar blue assay; settings: M27, 24 h
[2] = tested on: Mycobacterium tuberculosis; experiment: Antimycobacterial activity against isoniazid and rifampin -resistant Mycobacterium tuberculosis M22 after 24 hrs by microtiter alamar blue assay; settings: M22, 24 h
[3] = tested on: Mycobacterium tuberculosis; experiment: Antimycobacterial activity against isoniazid, rifampin, ethambutol, streptomycin, ofloxacin and ciprofloxacin-resistant Mycobacterium tuberculosis M48 after 24 hrs by microtiter alamar blue assay; settings: M48, 24 h
[4] = tested on: Mycobacterium tuberculosis; experiment: Antimycobacterial activity against isoniazid, rifampin, ethambutol, streptomycin, ofloxacin and ciprofloxacin-resistant Mycobacterium tuberculosis M53 after 24 hrs by microtiter alamar blue assay; settings: M53, 24 h
[5] = tested on: Mycobacterium tuberculosis; experiment: Antimycobacterial activity against isoniazid, rifampin and streptomycin-resistant Mycobacterium tuberculosis M3 after 24 hrs by microtiter alamar blue assay; settings: M3, 24 h
[6] = tested on: Mycobacterium tuberculosis; experiment: Antimycobacterial activity against isoniazid, rifampin and streptomycin-resistant Mycobacterium tuberculosis M5 after 24 hrs by microtiter alamar blue assay; settings: M5, 24 h
[7] = tested on: Mycobacterium tuberculosis; experiment: Antimycobacterial activity against isoniazid and rifampin-resistant Mycobacterium tuberculosis M6 after 24 hrs by microtiter alamar blue assay; settings: M6, 24 h
[8] = tested on: Mycobacterium tuberculosis; experiment: Antimycobacterial activity against isoniazid, rifampin, ethambutol and streptomycin-resistant Mycobacterium tuberculosis M8 after 24 hrs by microtiter alamar blue assay; settings: M8, 24 h
[9] = tested on: Mycobacterium tuberculosis; experiment: Antimycobacterial activity against isoniazid, rifampin, ethambutol, streptomycin, ofloxacin and ciprofloxacin-resistant Mycobacterium tuberculosis M46 after 24 hrs by microtiter alamar blue assay; settings: M46, 24 h
[10] = tested on: Mycobacterium tuberculosis; experiment: Antimycobacterial activity against isoniazid, rifampin and ethambutol-resistant Mycobacterium tuberculosis M16 after 24 hrs by microtiter alamar blue assay; settings: M16, 24 h
[11] = tested on: Mycobacterium tuberculosis; experiment: Antimycobacterial activity against isoniazid, rifampin, ethambutol and streptomycin-resistant Mycobacterium tuberculosis M4 after 24 hrs by microtiter alamar blue assay; settings: M4, 24 h
[12] = tested on: Mycobacterium tuberculosis; experiment: Antimycobacterial activity against isoniazid and rifampin-resistant Mycobacterium tuberculosis M11 after 24 hrs by microtiter alamar blue assay; settings: M11, 24 h
[13] = tested on: Mycobacterium tuberculosis; experiment: Antimycobacterial activity against isoniazid, rifampin, ethambutol and streptomycin-resistant Mycobacterium tuberculosis M21 after 24 hrs by microtiter alamar blue assay; settings: M21, 24 h

Measured: MIC

CCCCCOc1ccc(/C=C/c2cc(/C=C/c3ccc(O)c(OC)c3)no2)cc1OC
3.12 µg/mL: [3] | [4] | [7]
6.25 µg/mL: [2] | [8] | [12] | [13]
1.56 µg/mL: all other assays above

COc1cc(/C=C/c2cc(/C=C/c3ccc(OC)c(OC)c3)no2)ccc1O
1.56 µg/mL: [3] | [9] | [10] | [11]
0.195 µg/mL: [1] | [5]
0.39 µg/mL: [2] | [7]
3.12 µg/mL: all other assays above

COc1cc(/C=C/c2cc(/C=C/c3ccc(OC)c(OC)c3)on2)ccc1O
0.78 µg/mL: [1] | [5]
6.25 µg/mL: [9] | [11]
1.56 µg/mL: [2] | [7]
12.5 µg/mL: all other assays above

CCCCCOc1ccc(/C=C/c2cc(/C=C/c3ccc(O)c(OC)c3)on2)cc1OC
1.56 µg/mL: [6] | [9] | [11]
1.25 µg/mL: [10]
0.78 µg/mL: [2] | [7]
0.39 µg/mL: [1] | [5]
3.12 µg/mL: all other assays above
